Measurements as given in ChEMBL document CHEMBL1201861, “Genomics of Drug Sensitity in Cancer screening data, Wellcome Trust Sanger Institute”.

What was measured:
DBTRG-05MG = experiment: cells; assay type: functional, cell-based; settings: Homo sapiens;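 further: cell viability assay measuring growth inhibition of human DBTRG-05MG cells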
Description: SANGER: Inhibition of human DBTRG-05MG cell growth in a cell viability assay.

D-392MG = experiment: cells; assay type: functional, cell-based; settings: Homo sapiens
FaDu = experiment: cells; assay type: functional, cell-based; settings: Homo sapiens;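 further: cell viability readout of growth inhibition in FaDu cells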
Description: SANGER: Inhibition of human FADU cell growth in a cell viability assay.

SK-MEL-30 = experiment: cells; assay type: functional, cell-based; settings: Homo sapiens;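 further: growth inhibition of SK-MEL-30 cells, determined with a cell viability assay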
Description: SANGER: Inhibition of human SK-MEL-30 cell growth in a cell viability assay.

NCI-H1963 = experiment: cells; assay type: functional, cell-based, Homo sapiens; settings: Homo sapiens, NCI-H1963;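 further: cell growth inhibition of the human line, determined with a cell viability assay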
Description: SANGER: Inhibition of human NCI-H1963 cell growth in a cell viability assay.

Hs-578T = experiment: cells; assay type: functional, cell-based; settings: Homo sapiens
Description: SANGER: Inhibition of human Hs-578-T cell growth in a cell viability assay.

EFO-21 = experiment: cells; assay type: functional, cell-based; settings: Homo sapiens;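 further: growth inhibition of EFO-21 cells measured with a viability assay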
Description: SANGER: Inhibition of human EFO-21 cell growth in a cell viability assay.

SK-MEL3 = experiment: cells; assay type: functional, cell-based, SK-MEL-3; settings: Homo sapiens;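 further: growth inhibition of human SK-MEL-3 cells, read out with a cell viability assay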
Description: SANGER: Inhibition of human SK-MEL-3 cell growth in a cell viability assay.

TE-15 = experiment: cells; assay type: functional, cell-based, Homo sapiens; settings: Homo sapiens, TE-15;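 further: cell viability readout of growth inhibition in TE-15 cells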
Description: SANGER: Inhibition of human TE-15 cell growth in a cell viability assay.

MDA-MB-361 = experiment: cells; assay type: functional, cell-based; settings: Homo sapiens
T98G = experiment: cells; assay type: functional, cell-based; settings: Homo sapiens;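 further: growth inhibition of T98G cells, read out by a cell viability assay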
Description: SANGER: Inhibition of human T98G cell growth in a cell viability assay.

C3A = experiment: cells; assay type: functional, cell-based; settings: Homo sapiens;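 further: growth inhibition of C3A human cells, quantified with a cell viability readout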
Description: SANGER: Inhibition of human C3A cell growth in a cell viability assay.

HPAF-II = experiment: cells; assay type: functional, cell-based; settings: Homo sapiens;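 further: growth inhibition of HPAF-II cells, read out with a cell viability assay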
Description: SANGER: Inhibition of human HPAF-II cell growth in a cell viability assay.

LCLC-103H cell line = experiment: cells; assay type: functional, cell-based; settings: Homo sapiens
Description: SANGER: Inhibition of human LCLC-103H cell growth in a cell viability assay.

HT-29 = experiment: cells; assay type: functional, cell-based; settings: Homo sapiens;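 further: growth inhibition of human HT-29 cells, read out by a cell viability assay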
Description: SANGER: Inhibition of human HT-29 cell growth in a cell viability assay.

PC-14 = experiment: cells; assay type: functional, cell-based; settings: Homo sapiens;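 further: cell viability assay measuring inhibition of PC-14 cell growth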
Description: SANGER: Inhibition of human PC-14 cell growth in a cell viability assay.

MKN-28 = experiment: cells; assay type: functional, cell-based; settings: Homo sapiens;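 further: cell viability assay read-out, IC50 reflects suppression of growth of human MKN-28 cells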
Description: SANGER: Inhibition of human MKN28 cell growth in a cell viability assay.

NCI-H1703 = experiment: cells; assay type: functional, cell-based; settings: Homo sapiens;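 further: growth inhibition of NCI-H1703 cells, read out via a cell viability assay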
Description: SANGER: Inhibition of human NCI-H1703 cell growth in a cell viability assay.

C-33-A = experiment: cells; assay type: functional, cell-based; settings: Homo sapiens;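 further: cell viability assay measuring growth inhibition of C-33-A cells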
Description: SANGER: Inhibition of human C-33-A cell growth in a cell viability assay.

NCI-H2009 = experiment: cells; assay type: functional, cell-based; settings: Homo sapiens;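 further: cell viability assay measuring inhibition of NCI-H2009 cell growth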
Description: SANGER: Inhibition of human NCI-H2009 cell growth in a cell viability assay.

SAOS-2 = experiment: cells; assay type: functional, cell-based; settings: Homo sapiens;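 further: growth inhibition of human Saos-2 cells determined by a cell viability assay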
Description: SANGER: Inhibition of human Saos-2 cell growth in a cell viability assay.

EFM-19 = experiment: cells; assay type: functional, cell-based; settings: Homo sapiens;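 further: growth inhibition of human EFM-19 cells, measured in a cell viability assay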
Description: SANGER: Inhibition of human EFM-19 cell growth in a cell viability assay.

KYSE-450 = experiment: cells; assay type: functional, cell-based; settings: Homo sapiens;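 further: cell growth inhibition measured by a viability assay in human KYSE-450 cells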
Description: SANGER: Inhibition of human KYSE-450 cell growth in a cell viability assay.

Ca-Ski = experiment: cells; assay type: functional, cell-based; settings: Homo sapiens;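 further: cell viability assay measuring inhibition of Ca-Ski cell growth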
Description: SANGER: Inhibition of human Ca-Ski cell growth in a cell viability assay.

NCI-H748 = experiment: cells; assay type: functional, cell-based, Homo sapiens; settings: Homo sapiens, NCI-H748;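 further: growth inhibition of NCI-H748 cells, measured by a cell viability assay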
Description: SANGER: Inhibition of human NCI-H748 cell growth in a cell viability assay.

HOP-92 = experiment: cells; assay type: functional, cell-based; settings: Homo sapiens;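 further: cell viability readout, with IC50 reflecting inhibition of HOP-92 cell growth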
Description: SANGER: Inhibition of human HOP-92 cell growth in a cell viability assay.

MIA PaCa-2 = experiment: cells; assay type: functional, cell-based; settings: Homo sapiens;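 further: growth inhibition of MIA PaCa-2 cells, read out with a cell viability assay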
Description: SANGER: Inhibition of human MIA-PaCa-2 cell growth in a cell viability assay.

ST486 = experiment: SANGER: Inhibition of human ST486 cell growth in a cell viability assay.; assay type: functional, cell-based; settings: Homo sapiens, ST486
U2OS = experiment: cells; assay type: functional, cell-based, U-2-OS; settings: Homo sapiens;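 further: growth inhibition of human U-2-OS cells, determined with a cell viability assay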
Description: SANGER: Inhibition of human U-2-OS cell growth in a cell viability assay.

COLO-792 = experiment: cells; assay type: functional, cell-based; settings: Homo sapiens
Description: SANGER: Inhibition of human COLO-792 cell growth in a cell viability assay.

DOK = experiment: cells; assay type: functional, cell-based; settings: Homo sapiens;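 further: cell viability assay read-out, values reflect inhibition of cell growth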
Description: SANGER: Inhibition of human DOK cell growth in a cell viability assay.

SW780 = experiment: cells; assay type: functional, cell-based; settings: Homo sapiens;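 further: growth inhibition of the cells, read out with a cell viability assay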
Description: SANGER: Inhibition of human SW780 cell growth in a cell viability assay.

EVSA-T = experiment: cells; assay type: functional, cell-based, Homo sapiens; settings: Homo sapiens, EVSA-T;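 further: growth inhibition of EVSA-T cells, read out with a cell viability assay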
Description: SANGER: Inhibition of human EVSA-T cell growth in a cell viability assay.

SW756 = experiment: cells; assay type: functional, cell-based; settings: Homo sapiens;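 further: growth inhibition of human SW756 cells, read out with a cell viability assay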
Description: SANGER: Inhibition of human SW756 cell growth in a cell viability assay.

RL = experiment: cells; assay type: functional, cell-based, Homo sapiens; settings: Homo sapiens, RL
Description: SANGER: Inhibition of human RL cell growth in a cell viability assay.

NCI-H1693 = experiment: cells; assay type: functional, cell-based; settings: Homo sapiens;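 further: growth inhibition of the human cell line, read out with a cell viability assay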
Description: SANGER: Inhibition of human NCI-H1693 cell growth in a cell viability assay.

8305C = experiment: cells; assay type: functional, cell-based; settings: Homo sapiens
Description: SANGER: Inhibition of human 8305C cell growth in a cell viability assay.

CAL-85-1 = experiment: cells; assay type: functional, cell-based; settings: Homo sapiens;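 further: growth inhibition of human CAL-85-1 cells, read out with a cell viability assay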
Description: SANGER: Inhibition of human CAL-85-1 cell growth in a cell viability assay.

KU-19-19 = experiment: cells; assay type: functional, cell-based; settings: Homo sapiens
Description: SANGER: Inhibition of human KU-19-19 cell growth in a cell viability assay.

HCC1569 = experiment: cells; assay type: functional, cell-based; settings: Homo sapiens;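 further: growth inhibition of human HCC1569 cells, read out with a cell viability assay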
Description: SANGER: Inhibition of human HCC1569 cell growth in a cell viability assay.

KYSE-180 = experiment: cells; assay type: functional, cell-based; settings: Homo sapiens;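 further: growth inhibition of KYSE-180 cells, read out with a cell viability assay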
Description: SANGER: Inhibition of human KYSE-180 cell growth in a cell viability assay.

NCI-H1437 = experiment: cells; assay type: functional, cell-based; settings: Homo sapiens;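 further: growth inhibition of human NCI-H1437 cells, read out by a cell viability assay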
Description: SANGER: Inhibition of human NCI-H1437 cell growth in a cell viability assay.

KP-4 = experiment: cells; assay type: functional, cell-based; settings: Homo sapiens;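 further: human KP-4 cells, with growth inhibition read out through a cell viability assay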
Description: SANGER: Inhibition of human KP-4 cell growth in a cell viability assay.

JIYOYE = experiment: cells; assay type: functional, cell-based, Homo sapiens; settings: Homo sapiens, JIYOYE
Description: SANGER: Inhibition of human JiyoyeP-2003 cell growth in a cell viability assay.

Huh-7 = experiment: cells; assay type: functional, cell-based; settings: Homo sapiens;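 further: HuH-7 cell growth inhibition, read out with a cell viability assay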
Description: SANGER: Inhibition of human HuH-7 cell growth in a cell viability assay.

S-117 = experiment: cells; assay type: functional, cell-based; settings: Homo sapiens
Description: SANGER: Inhibition of human S-117 cell growth in a cell viability assay.

COR-L23 = experiment: cells; assay type: functional, cell-based; settings: Homo sapiens;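 further: cell viability assay measuring how strongly compounds suppress growth of COR-L23 cells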
Description: SANGER: Inhibition of human COR-L23 cell growth in a cell viability assay.

MEL-HO = experiment: cells; assay type: functional, cell-based; settings: Homo sapiens
Description: SANGER: Inhibition of human MEL-HO cell growth in a cell viability assay.

UACC-893 = experiment: cells; assay type: functional, cell-based; settings: Homo sapiens
Description: SANGER: Inhibition of human UACC-893 cell growth in a cell viability assay.

M14 = experiment: cells; assay type: functional, cell-based; settings: Homo sapiens;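 further: growth inhibition of M14 cells, read out with a cell viability assay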
Description: SANGER: Inhibition of human M14 cell growth in a cell viability assay.

SW626 = experiment: cells; assay type: functional, cell-based; settings: Homo sapiens;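 further: growth inhibition of SW626 cells, measured with a cell viability assay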
Description: SANGER: Inhibition of human SW626 cell growth in a cell viability assay.

RO82-W-1 = experiment: cells; assay type: functional, cell-based; settings: Homo sapiens;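 further: growth inhibition of human RO82-W-1 cells, measured with a cell viability assay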
Description: SANGER: Inhibition of human RO82-W-1 cell growth in a cell viability assay.

HN = experiment: cells; assay type: functional, cell-based; settings: Homo sapiens
Description: SANGER: Inhibition of human HN cell growth in a cell viability assay.

Daoy = experiment: cells; assay type: functional, cell-based; settings: Homo sapiens;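 further: daoy cell growth inhibition, read out as cell viability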
Description: SANGER: Inhibition of human Daoy cell growth in a cell viability assay.

CPC-N = experiment: cells; assay type: functional, cell-based, Homo sapiens; settings: Homo sapiens, CPC-N;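 further: growth inhibition of CPC-N cells, with a cell viability assay as the readout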
Description: SANGER: Inhibition of human CPC-N cell growth in a cell viability assay.

LU-99A = experiment: cells; assay type: functional, cell-based; settings: Homo sapiens;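 further: growth inhibition of LU-99A cells, read out with a cell viability assay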
Description: SANGER: Inhibition of human LU-99A cell growth in a cell viability assay.

EW-24 = experiment: cells; assay type: functional, cell-based, Homo sapiens; settings: Homo sapiens, EW-24;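 further: human EW-24 cancer cell line, growth inhibition read out via a cell viability assay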
Description: SANGER: Inhibition of human EW-24 cell growth in a cell viability assay.

HEC-1 = experiment: cells; assay type: functional, cell-based; settings: Homo sapiens;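 further: growth inhibition of the cell line, read out with a cell viability assay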
Description: SANGER: Inhibition of human HEC-1 cell growth in a cell viability assay.

NCI-H1993 = experiment: cells; assay type: functional, cell-based; settings: Homo sapiens;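 further: growth inhibition of the cancer cell line, assessed with a cell viability assay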
Description: SANGER: Inhibition of human NCI-H1993 cell growth in a cell viability assay.

786-0 = experiment: cells; assay type: functional, cell-based; settings: Homo sapiens
Description: SANGER: Inhibition of human 786-0 cell growth in a cell viability assay.

Panc1005 = experiment: cells; assay type: functional, cell-based; settings: Homo sapiens;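 further: growth inhibition of human PANC-10-05 cells, measured by a cell viability assay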
Description: SANGER: Inhibition of human PANC-10-05 cell growth in a cell viability assay.

Structure (SMILES): COC(=O)[C@H](CCSC)NC(=O)c1ccc(NC[C@@H](N)CS)cc1-c1ccccc1
- IC50 (DBTRG-05MG): > 1.02 µM
- IC50 (D-392MG): > 1.02 µM
- IC50 (FaDu): > 1.02 µM
- IC50 (SK-MEL-30): > 1.02 µM
- IC50 (NCI-H1963): > 1.02 µM
- IC50 (Hs-578T): > 1.02 µM
- IC50 (EFO-21): > 1.02 µM
- IC50 (SK-MEL3): > 1.02 µM
- IC50 (TE-15): > 1.02 µM
- IC50 (MDA-MB-361): > 1.02 µM
- IC50 (T98G): > 1.02 µM
- IC50 (C3A): > 1.02 µM
- IC50 (HPAF-II): > 1.02 µM
- IC50 (LCLC-103H cell line): > 1.02 µM
- IC50 (HT-29): > 1.02 µM
- IC50 (PC-14): > 1.02 µM
- IC50 (MKN-28): > 1.02 µM
- IC50 (NCI-H1703): > 1.02 µM
- IC50 (C-33-A): > 1.02 µM
- IC50 (NCI-H2009): > 1.02 µM
- IC50 (SAOS-2): > 1.02 µM
- IC50 (EFM-19): > 1.02 µM
- IC50 (KYSE-450): > 1.02 µM
- IC50 (Ca-Ski): > 1.02 µM
- IC50 (NCI-H748): > 1.02 µM
- IC50 (HOP-92): > 1.02 µM
- IC50 (MIA PaCa-2): > 1.02 µM
- IC50 (ST486): > 1.02 µM
- IC50 (U2OS): > 1.02 µM
- IC50 (COLO-792): > 1.02 µM
- IC50 (DOK): > 1.02 µM
- IC50 (SW780): > 1.02 µM
- IC50 (EVSA-T): > 1.02 µM
- IC50 (SW756): > 1.02 µM
- IC50 (RL): > 1.02 µM
- IC50 (NCI-H1693): > 1.02 µM
- IC50 (8305C): > 1.02 µM
- IC50 (CAL-85-1): > 1.02 µM
- IC50 (KU-19-19): > 1.02 µM
- IC50 (HCC1569): > 1.02 µM
- IC50 (KYSE-180): > 1.02 µM
- IC50 (NCI-H1437): > 1.02 µM
- IC50 (KP-4): > 1.02 µM
- IC50 (JIYOYE): > 1.02 µM
- IC50 (Huh-7): > 1.02 µM
- IC50 (S-117): > 1.02 µM
- IC50 (COR-L23): > 1.02 µM
- IC50 (MEL-HO): > 1.02 µM
- IC50 (UACC-893): > 1.02 µM
- IC50 (M14): > 1.02 µM
- IC50 (SW626): > 1.02 µM
- IC50 (RO82-W-1): > 1.02 µM
- IC50 (HN): > 1.02 µM
- IC50 (Daoy): > 1.02 µM
- IC50 (CPC-N): > 1.02 µM
- IC50 (LU-99A): > 1.02 µM
- IC50 (EW-24): > 1.02 µM
- IC50 (HEC-1): > 1.02 µM
- IC50 (NCI-H1993): > 1.02 µM
- IC50 (786-0): > 1.02 µM
- IC50 (Panc1005): > 1.02 µM

Structure (SMILES): O=S(=O)(O)c1ccc2cc(/N=N/c3cc(S(=O)(=O)O)c4cccnc4c3O)ccc2c1
- IC50 (DBTRG-05MG): > 16 µM
- IC50 (D-392MG): > 16 µM
- IC50 (FaDu): > 16 µM
- IC50 (SK-MEL-30): > 16 µM
- IC50 (NCI-H1963): > 16 µM
- IC50 (Hs-578T): > 16 µM
- IC50 (EFO-21): > 16 µM
- IC50 (SK-MEL3): > 16 µM
- IC50 (TE-15): > 16 µM
- IC50 (MDA-MB-361): > 16 µM
- IC50 (T98G): > 16 µM
- IC50 (C3A): > 16 µM
- IC50 (HPAF-II): > 16 µM
- IC50 (LCLC-103H cell line): > 16 µM
- IC50 (HT-29): > 16 µM
- IC50 (PC-14): > 16 µM
- IC50 (MKN-28): > 16 µM
- IC50 (NCI-H1703): > 16 µM
- IC50 (C-33-A): > 16 µM
- IC50 (NCI-H2009): > 16 µM
- IC50 (SAOS-2): > 16 µM
- IC50 (EFM-19): > 16 µM
- IC50 (KYSE-450): > 16 µM
- IC50 (Ca-Ski): > 16 µM
- IC50 (NCI-H748): > 16 µM
- IC50 (HOP-92): > 16 µM
- IC50 (MIA PaCa-2): > 16 µM
- IC50 (ST486): > 16 µM
- IC50 (U2OS): > 16 µM
- IC50 (COLO-792): > 16 µM
- IC50 (DOK): > 16 µM
- IC50 (SW780): > 16 µM
- IC50 (EVSA-T): > 16 µM
- IC50 (SW756): > 16 µM
- IC50 (RL): > 16 µM
- IC50 (NCI-H1693): > 16 µM
- IC50 (8305C): > 16 µM
- IC50 (CAL-85-1): > 16 µM
- IC50 (KU-19-19): > 16 µM
- IC50 (HCC1569): > 16 µM
- IC50 (KYSE-180): > 16 µM
- IC50 (NCI-H1437): > 16 µM
- IC50 (KP-4): > 16 µM
- IC50 (JIYOYE): > 16 µM
- IC50 (Huh-7): > 16 µM
- IC50 (S-117): > 16 µM
- IC50 (COR-L23): > 16 µM
- IC50 (MEL-HO): > 16 µM
- IC50 (UACC-893): > 16 µM
- IC50 (M14): > 16 µM
- IC50 (SW626): > 16 µM
- IC50 (RO82-W-1): > 16 µM
- IC50 (HN): > 16 µM
- IC50 (Daoy): > 16 µM
- IC50 (CPC-N): > 16 µM
- IC50 (LU-99A): > 16 µM
- IC50 (EW-24): > 16 µM
- IC50 (HEC-1): > 16 µM
- IC50 (NCI-H1993): > 16 µM
- IC50 (786-0): 5.59 µM
- IC50 (Panc1005): > 16 µM
